{"source": "patent EP0136464A2", "about": "“Therapeutic compositions for oral use containing stable S-Adenosy1-L-Methionine salts” (BIORESEARCH S.p.A., priority 1983, dated 1985)", "test_system": "Reaction to heat, tail flick test in the rat", "experiment": "Reaction to heat, tail flick test in the rat (analgesic activity)", "type": "in vivo, male Sprague-Dawley rats", "settings": "in vivo, 5 mg/kg", "procedure": "In the experiments carried out on animals which received the SAMe orally, the drug was dissolved in physiological solution and administered by gastric probe in a volume of 0.5 ml/100 g of body weight. An equal volume of physiological solution was administered to the controls.\nIn the experiments in which SAMe was administered intraduodenally, the animals anesthetised with ether were subjected to laparotomy to allow the insertion into the duodenum of gelatin capsules (size 4) containing the product.\nAfter inserting the capsule, the duodenum was sutured carefully so as not to traumatise the tissue and was then returned to its seat, the muscular and cutaneous layers then being re-composed and sutured.\nThe control animals received an empty gelatin capsule by the same procedure.\n1) Reaction to heat, tail flick test in the rat.\nThe analgesic activity of SAMe was evaluated in male Sprague-Dawley rats of about 190 g weight by the method of D'Amour and Smith (J. Pharmacol. Exp. Theor. 71, 74 (1941)).\nThe SAMe was administered either orally or in gelatin capsules into the duodenum in doses of 50 and 100 mg/kg.\nMorphine was used as the comparison drug and was administered under the cutis at a dose of 5 mg/kg.\nThe analgesic activity was determined 30, 60 and 120 minutes after administration of the drugs.\nThe results represent the mean + S.E. for the number of animals indicated in parentheses. The morphine was administered under the cutis to rats which received one empty capsule into the duodenum."}
{"smiles": "CN1CC[C@]23c4c5ccc(O)c4O[C@H]2[C@@H](O)C=C[C@H]3[C@H]1C5", "note": "[Morphine, reference compound]", "values": [{"measurement": "analgesic activity with respect to the controls", "result": "powerful analgesic activity (P<0.01)"}]}
